Laboratory results reported in US7989188B2, “Conjugates for cancer therapy and diagnosis” (BioSight Ltd., priority 2004, dated 2011).

What was measured:
[1] = In-vitro toxicity profile, MTT cell viability; type: cell-based; settings: human, HUVEC (human umbilical vein endothelial cells, normal), healthy cells (HUVEC), at the concentration of 5-FU that resulted in 90% mortality (IC90), FIG. 2
Description: (§1) Materials and Methods: Human umbilical vein endothelial cells (HUVEC, normal) cells were grown in M199 medium supplemented with 20% fetal calf serum (FCS), vitamins, 1 ng/ml hbFGF, and antibiotics at […], 5% CO2. Human melanoma cells (WW-94, cancer) cells were grown in 50% DMEM/50% F-12 medium supplemented with 10% fetal calf serum and antibiotics.
(§2) The cells were seeded in a 96-well ELISA dish at a concentration of 10,000-20,000 cells/well. The conjugates were added at concentrations that cause IC50 (50% lethality, FIG. 1), or IC90 (90% lethality, FIG. 2) by 5-FU. The cells were incubated for 72 hours at 37° C. and 5% CO2. After 72 hours the medium was aspirated, and DMEM containing 5% FCS and 0.5 mg/ml MTT (3-(4,5-Dimethyl-2-thiazolyl)-2,5-diphenyl-2H-tetrazolium bromide, an indicator of cell viability) was added. The cells were incubated for 2-4 hours at 37° C. and 5% CO2, washed with phosphate buffer saline (PBS) and dissolved in dimethylsulfoxide (DMSO). The results were analyzed using Techan ELISA reader equipped with a 570 nm filter. The results are represented as % of cell mortality.

[2] = system: Human umbilical vein endothelial cells (HUVEC, normal); assay: In-vitro toxicity profile, MTT cell viability; type: cell-based; settings: normal cells (HUVEC), 72 hours, at the concentration of 5-FU that causes 50% mortality (IC50), FIG. 1
Description: as §1, §2

[3] = Acute intravenous (IV) toxicity, single injection, MTD and LD50; settings: female, BALB/c, mouse, in vivo, iv
Description: (§3) Purpose: To measure the potential acute intravenous (IV) toxicity of Asp(5-FU) in mice, estimated by Maximum Tolerated Dose (MTD) and 50% Lethal Dose (LD50).
(§4) Method: The potential acute intravenous (IV) toxicity of the Asp(5-FU) was assessed in groups of BALB/c female mice of 5 mice per group, in order to establish appropriate MTD levels towards a projected series of various anti-tumorigenic efficacy trials.
(§5) Asp(5-FU) was administered as single IV injections at three dose levels of 80, 150 and 200 mg/kg. One group was administered with saline served as control. In all instances, freshly prepared solutions were injected at a constant volume of 10 ml/kg.

BALB/c female mice = assay: as above
Description: as §3, §4, §5

[4] = system: MX-1 human mammary duct carcinoma; assay: Anti-tumor activity, MX-1 xenograft murine model, intravenous treatment; type: in vivo, BALB/c nude mice; settings: for increase in tumor volume at the end of the study period: injected Days 10, 14 and 18, Asp(5-FU) 50 and 100 mg/kg, 5-FU 26 mg/kg, saline 170%
Description: The potential anti-tumor activity of Asp(5-FU) was assessed based on the relative growth inhibition of human mammary duct carcinoma, MX-1 murine model.
Propagation of Tumor Material (MX-1 fragments): The Mammary Xenograft-1 (MX-1) is a human derived mammary duct carcinoma, supplied by the National Cancer Institute (NCI). The tissue was kept frozen until the time of implantation. The fragments (one to each animal in the study) were prepared according to the NCI recommended transplantation protocol.
Each vial containing 5 to 6 fragments was rapidly thawed (60-90 seconds) in a water bath at 37-40° C. The frozen fragments were implanted immediately after thawing.
Two fragments were implanted close to each other at the same sub-axillary incision site of each animal assigned to the propagation phase. The mass doubling time of the MX-1 tumor during the logarithmic phase was 4-5 days post implantation. Subsequently, another 2 fragments were implanted into each of 6 animals to achieve at least a total of 20 implanted fragments.
At the end of the logarithmic phase, the donor animals were sacrificed, the tumors were excised, dissected and transferred to a sterile Petri dish placed over ice and cut into approximately 20 fragments (about 2×2×2 mm each) for their transplantation into 10 naïve mice. A total of 42 tumor fragments were transplanted at the end of the second propagation phase. No more than 30 minutes elapsed from the time the tumor was removed from the donor animals until transplantation.
Tumor Induction and Monitoring (Pre-Treatment): Upon completion of the propagation phase, tumor fragments measuring about 2×2×2 mm each, were implanted subcutaneously (SC) into the right flank of each test animal assigned to the main study. Tumor growth was monitored twice weekly and the total SC mass (mm^3) determined on the basis of width and length measurement using micrometer calipers. […]
Tumor volume changes were determined using the following equation: V (mm^3)=d^2 (mm^2)×D (mm)/2 wherein d and D represent the smallest and the largest perpendicular tumor diameters respectively. […]
Body Weight: Individual body weights were determined prior to MX-1 fragment transplantation and thereafter once weekly until initiation of treatment. Following initiation of treatment individual body weights were determined twice weekly until the scheduled study termination or in case of removal of animals from the study due to animal welfare reasons, at the time of death.
Necropsy Procedures and Macroscopic Examination: Necropsy was performed on all animals including those removed from the study for animal welfare reasons and all surviving 10 days after the last dosing session (Groups 1, 2 & 3), following euthanasia. […] All gross pathological changes were recorded. […]

[5] = Acute toxicity (MTD), single administration by oral gavage; settings: mouse, in vivo, po
Description: (§6) OBJECTIVE: To determine the Maximum Tolerated Dose (MTD) of the test product, Asp(5-FU), following a single administration by oral gavage (PO) to mice.
(§7) This experiment was performed essentially according to Example 22 supra, with the exception that the test agent and the controls were administered orally, by oral gavage. Asp(5-FU) was suspended in corn oil and administered by single oral gavage (PO), at 2 dose levels of 200 and 400 mg/kg, to 2 test groups. An additional equally sized group was administered the vehicle (corn oil) and served as control. In all instances the volume dosage was 10 ml/kg.

mice [6] = assay: as above; settings: single PO 200 and 400 mg/kg
Description: as §6, §7

[7] = system: human mammary duct carcinoma xenograft MX-1; assay: Anti-tumor activity, MX-1 xenograft murine model, oral gavage; type: in vivo, mice; settings: PO gavage 200 mg/kg, seven administrations at 3-days inter-dosing intervals
Description: The compounds were administered to mice following about 3-6 hours food deprivation prior to dosing, using a suitable stainless steel feeding needle. Following dosing, food was withheld for further 1-2 hours.
Dose and Volume Dosage: 50 mg/kg reference item and 200 mg/kg of Asp(5-FU). In all instances, volume dosage was 10 ml/kg.
Frequency and Duration: Treatment with Control, Test or Reference Items was carried out as 1× daily injection at 3-days inter-dosing intervals×7 (days 1-25).

mice [8] = settings: NIH report; cited from earlier work

| Compound | mortality at 72 h [1] | % of cell mortality [2] | LD50 [3] | MTD [3] | less toxic than 5-FU (BALB/c female mice; female, BALB/c, mouse, in vivo) | gross pathological findings at scheduled necropsy (BALB/c female mice; single IV 80, 150 and 200 mg/kg) | Incidence of mortality (BALB/c female mice; single IV injection, high-dose group 200 mg/kg, immediate post-dosing period) | clinical signs (BALB/c female mice; single IV, high-dose 200 mg/kg, survivors or decedents respectively) | clinical signs (BALB/c female mice; single IV, intermediate- and low-dose 150 & 80 mg/kg) | Mean group body weight (BALB/c female mice; single IV, intermediate-dose group, Day 8, p<0.01, full recovery Day 8-15) | tumor progression compared to controls ([4]; Asp(5-FU) 50 and 100 mg/kg, tumor volume, FIG. 5) | tumor weight upon necropsy compared to 5-FU and saline control ([4]; end of treatment period, FIG. 6) | increase in tumor volume at the end of the study period [4] | MTD at 14 days [5] | gross pathological findings at scheduled necropsy (mice [6]) | clinical signs in reaction to dosing (mice [6]; 14-day observation period) | progressive tumor development compared to corn oil controls [7] | LD50 (mice [8]) | MTD (mice [8]) |
| --- | --- | --- | --- | --- | --- | --- | --- | --- | --- | --- | --- | --- | --- | --- | --- | --- | --- | --- | --- |
| NC(CC(=O)n1cc(F)c(=O)[nH]c1=O)C(=O)O [Asp(5-FU), L-aspartic acid-beta-1N-(2,4-dioxo-5-fluoropyrimidine)] | 20% | did not kill normal cells | 200 mg/kg | 160 mg/kg | 600% | No gross pathological findings | 3/5 | brief decreased motor activity or lateral recumbency | No obvious clinical signs | transient reduced body weight | significant reduction in tumor progression | significant decrease | 104% | > 400 mg/kg | No gross pathological findings | No noticeable clinical signs | relative decrease in progressive tumor development | – | – |
| O=c1[nH]cc(F)c(=O)[nH]1 [Compound 5-FU, 2,4-dioxo-5-fluoropyrimidine] | – | – | – | – | – | – | – | – | – | – | – | – | 185% | – | – | – | – | 81 mg/kg | 24 to 26 mg/kg |
